PMC3242598, “Phase I study of BIBF 1120 with docetaxel and prednisone in metastatic chemo-naive hormone-refractory prostate cancer patients” (British Journal of Cancer, 2011)

Test system: patients with metastatic, chemo-naive, hormone-refractory prostate cancer (HRPC)
Experiment: Phase I safety analysis: adverse events graded by CTCAE version 3.0
Type: in vivo, human
Settings: all courses
Protocol: On days 2–21 (21-day cycle), patients took an oral dose of BIBF 1120 twice daily. Patients were instructed to swallow BIBF 1120 with water at the same time every day to ensure a dose interval of ∼12 h. On day 2 of treatment cycles (TCs) 1 and 2, patients only took the morning dose of BIBF 1120, omitting the evening dose to allow PK evaluation. All patients were premedicated with oral corticosteroids (dexamethasone 8 mg per os or methylprednisolone 32 mg per os, at 12 h and 1 h before docetaxel infusion) and subsequently took 5 mg prednisone oral BID throughout the trial. On day 1 of each TC, patients received an IV infusion of 75 mg m^−2 docetaxel administered over 1 h.
All patients who received at least one dose of BIBF 1120 or docetaxel were assessed during the safety analysis. Intensity of AEs was graded according to Common Terminology Criteria for Adverse Events (CTCAE) version 3.0. Objective response was defined as a PSA decline ⩾50% from the baseline value over two consecutive courses and/or tumour response according to RECIST criteria ([Therasse et al, 2000]).

[1] = 100 mg BID (n=3) + docetaxel/prednisone, Gr 3/4
[2] = 100 mg BID (n=3) + docetaxel/prednisone, all grades
[3] = 150 mg BID (n=3) + docetaxel/prednisone, Gr 3/4
[4] = 150 mg BID (n=3) + docetaxel/prednisone, all grades
[5] = 200 mg BID (n=3) + docetaxel/prednisone, Gr 3/4
[6] = 200 mg BID (n=3) + docetaxel/prednisone, all grades

COC(=O)c1ccc2c(c1)NC(=O)/C2=C(\Nc1ccc(N(C)C(=O)CN2CCN(C)CC2)cc1)c1ccccc1 [BIBF 1120]
Ageusia: patients with drug-related AE [1]: 0 | Alopecia: patients with drug-related AE [1]: 0 | Anorexia: patients with drug-related AE [1]: 0 | Asthenia: patients with drug-related AE [1]: 0 | Constipation: patients with drug-related AE [1]: 0 | Diarrhoea: patients with drug-related AE [1]: 0 | Dysgeusia: patients with drug-related AE [1]: 0 | Dyspepsia: patients with drug-related AE [1]: 0 | Dysphonia: patients with drug-related AE [1]: 0 | Elevated ALT: patients with drug-related AE [1]: 0 | Elevated AST: patients with drug-related AE [1]: 0 | Elevated GGT: patients with drug-related AE [1]: 0 | Elevated alkaline phosphatase: patients with drug-related AE [1]: 0 | Epistasis: patients with drug-related AE [1]: 0 | Headache: patients with drug-related AE [1]: 0 | Hot flush: patients with drug-related AE [1]: 0 | Mucosal inflammation: patients with drug-related AE [1]: 0 | Muscle spasm: patients with drug-related AE [1]: 0 | Nausea: patients with drug-related AE [1]: 0 | Neuropathy: patients with drug-related AE [1]: 0 | Pyrexia: patients with drug-related AE [1]: 0 | Rash: patients with drug-related AE [1]: 0 | Upper abdominal pain: patients with drug-related AE [1]: 0 | Vomiting: patients with drug-related AE [1]: 0 | Weight decrease: patients with drug-related AE [1]: 0 | Ageusia: patients with drug-related AE [2]: 0 | Alopecia: patients with drug-related AE [2]: 0 | Anorexia: patients with drug-related AE [2]: 0 | Asthenia: patients with drug-related AE [2]: 0 | Constipation: patients with drug-related AE [2]: 0 | Diarrhoea: patients with drug-related AE [2]: 0 | Dysgeusia: patients with drug-related AE [2]: 0 | Dyspepsia: patients with drug-related AE [2]: 0 | Dysphonia: patients with drug-related AE [2]: 0 | Elevated ALT: patients with drug-related AE [2]: 0 | Elevated AST: patients with drug-related AE [2]: 0 | Elevated GGT: patients with drug-related AE [2]: 0 | Elevated alkaline phosphatase: patients with drug-related AE [2]: 0 | Epistasis: patients with drug-related AE [2]: 0 | Headache: patients with drug-related AE [2]: 0 | Hot flush: patients with drug-related AE [2]: 0 | Mucosal inflammation: patients with drug-related AE [2]: 0 | Muscle spasm: patients with drug-related AE [2]: 0 | Nausea: patients with drug-related AE [2]: 0 | Neuropathy: patients with drug-related AE [2]: 0 | Pyrexia: patients with drug-related AE [2]: 0 | Rash: patients with drug-related AE [2]: 0 | Upper abdominal pain: patients with drug-related AE [2]: 0 | Vomiting: patients with drug-related AE [2]: 0 | Weight decrease: patients with drug-related AE [2]: 0 | Ageusia: patients with drug-related AE [3]: 0 | Alopecia: patients with drug-related AE [3]: 0 | Anorexia: patients with drug-related AE [3]: 0 | Asthenia: patients with drug-related AE [3]: 0 | Constipation: patients with drug-related AE [3]: 0 | Diarrhoea: patients with drug-related AE [3]: 0 | Dysgeusia: patients with drug-related AE [3]: 0 | Dyspepsia: patients with drug-related AE [3]: 0 | Dysphonia: patients with drug-related AE [3]: 0 | Elevated ALT: patients with drug-related AE [3]: 0 | Elevated AST: patients with drug-related AE [3]: 0 | Elevated GGT: patients with drug-related AE [3]: 0 | Elevated alkaline phosphatase: patients with drug-related AE [3]: 0 | Epistasis: patients with drug-related AE [3]: 0 | Headache: patients with drug-related AE [3]: 0 | Hot flush: patients with drug-related AE [3]: 0 | Mucosal inflammation: patients with drug-related AE [3]: 0 | Muscle spasm: patients with drug-related AE [3]: 0 | Nausea: patients with drug-related AE [3]: 0 | Neuropathy: patients with drug-related AE [3]: 0 | Pyrexia: patients with drug-related AE [3]: 0 | Rash: patients with drug-related AE [3]: 0 | Upper abdominal pain: patients with drug-related AE [3]: 0 | Vomiting: patients with drug-related AE [3]: 0 | Weight decrease: patients with drug-related AE [3]: 0 | Ageusia: patients with drug-related AE [4]: 1 | Alopecia: patients with drug-related AE [4]: 0 | Anorexia: patients with drug-related AE [4]: 3 | Asthenia: patients with drug-related AE [4]: 3 | Constipation: patients with drug-related AE [4]: 1 | Diarrhoea: patients with drug-related AE [4]: 3 | Dysgeusia: patients with drug-related AE [4]: 1 | Dyspepsia: patients with drug-related AE [4]: 1 | Dysphonia: patients with drug-related AE [4]: 1 | Elevated ALT: patients with drug-related AE [4]: 0 | Elevated AST: patients with drug-related AE [4]: 0 | Elevated GGT: patients with drug-related AE [4]: 0 | Elevated alkaline phosphatase: patients with drug-related AE [4]: 0 | Epistasis: patients with drug-related AE [4]: 1 | Headache: patients with drug-related AE [4]: 2 | Hot flush: patients with drug-related AE [4]: 0 | Mucosal inflammation: patients with drug-related AE [4]: 0 | Muscle spasm: patients with drug-related AE [4]: 0 | Nausea: patients with drug-related AE [4]: 2 | Neuropathy: patients with drug-related AE [4]: 1 | Pyrexia: patients with drug-related AE [4]: 1 | Rash: patients with drug-related AE [4]: 0 | Upper abdominal pain: patients with drug-related AE [4]: 1 | Vomiting: patients with drug-related AE [4]: 0 | Weight decrease: patients with drug-related AE [4]: 1 | Ageusia: patients with drug-related AE [5]: 0 | Alopecia: patients with drug-related AE [5]: 0 | Anorexia: patients with drug-related AE [5]: 0 | Asthenia: patients with drug-related AE [5]: 0 | Constipation: patients with drug-related AE [5]: 0 | Diarrhoea: patients with drug-related AE [5]: 2 | Dysgeusia: patients with drug-related AE [5]: 0 | Dyspepsia: patients with drug-related AE [5]: 0 | Dysphonia: patients with drug-related AE [5]: 0 | Elevated ALT: patients with drug-related AE [5]: 0 | Elevated AST: patients with drug-related AE [5]: 0 | Elevated GGT: patients with drug-related AE [5]: 0 | Elevated alkaline phosphatase: patients with drug-related AE [5]: 0 | Epistasis: patients with drug-related AE [5]: 0 | Headache: patients with drug-related AE [5]: 0 | Hot flush: patients with drug-related AE [5]: 0 | Mucosal inflammation: patients with drug-related AE [5]: 0 | Muscle spasm: patients with drug-related AE [5]: 0 | Nausea: patients with drug-related AE [5]: 0 | Neuropathy: patients with drug-related AE [5]: 0 | Pyrexia: patients with drug-related AE [5]: 0 | Rash: patients with drug-related AE [5]: 0 | Upper abdominal pain: patients with drug-related AE [5]: 0 | Vomiting: patients with drug-related AE [5]: 0 | Weight decrease: patients with drug-related AE [5]: 0 | Ageusia: patients with drug-related AE [6]: 0 | Alopecia: patients with drug-related AE [6]: 0 | Anorexia: patients with drug-related AE [6]: 0 | Asthenia: patients with drug-related AE [6]: 1 | Constipation: patients with drug-related AE [6]: 0 | Diarrhoea: patients with drug-related AE [6]: 2 | Dysgeusia: patients with drug-related AE [6]: 0
